Experiments:
[1] = system: KYSE-30 cells; test: Cancer cell line proliferation assay, nuclear count, KYSE-30 (normal CCNE1); assay type: cell-based; details: Homo sapiens, normal CCNE1 expression, banded, read-out: KYSE30 GI50
Description: (§1) h-TERT-RPE1 TP53−/− and CCNE1 high expressing clones (clone cell lines 7 and 15) were treated with test compounds dissolved in DMSO at serially diluted concentrations alongside a DMSO only control for around 6 population doublings time. Cells were then fixed with 4% Paraformaldehyde and the cell nuclei were stained with DAPI (Sigma D9542). Images covering each well were acquired by an Opera Phenix® High-Content Screening System (PerkinElmer). Image analysis was performed using Harmony® high-content analysis software (PerkinElmer). Data analysis was performed using Microsoft Excel® and GI50 estimates generated with GraphPad Prism v9. Percent nuclear count was compared to vehicle control wells and used to measure inhibition of proliferation.
(§2) Cancer cell lines with either normal (KYSE-30) or amplified CCNE1 expression (OVCAR3-ovarian cancer) were evaluated for their sensitivity to PKMYT1 inhibitors in a nuclear count assay as described above for h-TERT-RPE1 TP53−/− and a CCNE1 high expressing clones, taking into account the slower cell cycle division times of these lines.

[2] = target: T1, Cellular PKMYT1 Biomarker CDK1 pT14 (Homo sapiens, UniProt Q99640); test: Inhibition of cellular PKMYT1 biomarker CDK1 pT14 in OVCAR 3 cells (immunoblot); assay type: cell-based; details: 20 hours incubation
T1 construct: read-out CDK1 phospho-T14 immunoblot
T1 sequence (Q99640 1-499): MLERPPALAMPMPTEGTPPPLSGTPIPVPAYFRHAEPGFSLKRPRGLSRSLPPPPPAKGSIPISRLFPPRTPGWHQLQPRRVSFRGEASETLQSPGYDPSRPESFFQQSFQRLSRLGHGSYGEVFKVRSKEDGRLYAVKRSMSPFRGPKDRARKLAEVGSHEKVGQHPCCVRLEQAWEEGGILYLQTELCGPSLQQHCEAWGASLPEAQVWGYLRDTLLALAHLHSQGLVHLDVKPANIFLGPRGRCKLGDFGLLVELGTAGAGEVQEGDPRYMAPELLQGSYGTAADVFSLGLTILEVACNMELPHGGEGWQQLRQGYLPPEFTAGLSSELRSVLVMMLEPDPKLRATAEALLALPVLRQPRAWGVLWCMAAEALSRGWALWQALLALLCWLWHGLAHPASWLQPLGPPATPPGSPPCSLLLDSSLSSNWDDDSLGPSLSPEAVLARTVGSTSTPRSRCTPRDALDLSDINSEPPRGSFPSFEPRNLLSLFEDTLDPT
How it was run: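 Confluent OVCAR 3 cells treated with a compound concentration range for 20 h at 37 °C. Lysates analysed by automated capillary immunoblot for CDK1 phospho-T14, with vinculin, fluorescence detection; IC50 by regression.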

[3] = system: KYSE-30 cells; test: Cancer cell line proliferation assay, ATP-based cell viability (Cell Titre Glow), KYSE-30 (normal CCNE1); details: Homo sapiens, KYSE-30 cells (normal CCNE1), concentration that achieves 50% cell growth proliferation inhibition, read-out: KYSE30 Gl50
How it was run: (§3)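 GI50 values, the concentrations halving cell growth, were derived from ATP-based luminescence (Cell Titre Glo) after PKMYT1 inhibitor exposure. Cells tested were OVCAR 3, an ovarian line with amplified CCNE1, and KYSE-30, which has normal CCNE1.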

[4] = system: OVCAR 3 cells; test: Cancer cell line proliferation assay, ATP-based cell viability (Cell Titre Glow), OVCAR 3 (CCNE1-amplified); details: KYSE30 (normal CCNE1) GI50 vs. OVCAR 3 (CCNE1-amplified) GI50
How it was run: as §3

[5] = system: OVCAR3 cells; test: Cancer cell line proliferation assay, nuclear count, OVCAR3 (CCNE1-amplified); assay type: cell-based; details: banded
Description: as §1, §2

[6] = target: T2, WEE1 (Homo sapiens, UniProt P30291); test: Selectivity versus WEE1 assay (ADP-Glo enzymatic assay); assay type: biochemical; details: banded
T2 construct: purchased Thermo Fisher PR7373A
How it was run: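 Inhibition is measured as reduced ADP production, detected by luminescence with ADP-Glo, after enzyme (15 nM) and 30 µM ATP react for 60 min at 26° C in 1% DMSO-containing HEPES buffer, pH 7.5. Data are accepted only if replicate IC50s fall within 3-fold and r2 exceeds 0.9.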

T2 sequence (P30291 whole entry): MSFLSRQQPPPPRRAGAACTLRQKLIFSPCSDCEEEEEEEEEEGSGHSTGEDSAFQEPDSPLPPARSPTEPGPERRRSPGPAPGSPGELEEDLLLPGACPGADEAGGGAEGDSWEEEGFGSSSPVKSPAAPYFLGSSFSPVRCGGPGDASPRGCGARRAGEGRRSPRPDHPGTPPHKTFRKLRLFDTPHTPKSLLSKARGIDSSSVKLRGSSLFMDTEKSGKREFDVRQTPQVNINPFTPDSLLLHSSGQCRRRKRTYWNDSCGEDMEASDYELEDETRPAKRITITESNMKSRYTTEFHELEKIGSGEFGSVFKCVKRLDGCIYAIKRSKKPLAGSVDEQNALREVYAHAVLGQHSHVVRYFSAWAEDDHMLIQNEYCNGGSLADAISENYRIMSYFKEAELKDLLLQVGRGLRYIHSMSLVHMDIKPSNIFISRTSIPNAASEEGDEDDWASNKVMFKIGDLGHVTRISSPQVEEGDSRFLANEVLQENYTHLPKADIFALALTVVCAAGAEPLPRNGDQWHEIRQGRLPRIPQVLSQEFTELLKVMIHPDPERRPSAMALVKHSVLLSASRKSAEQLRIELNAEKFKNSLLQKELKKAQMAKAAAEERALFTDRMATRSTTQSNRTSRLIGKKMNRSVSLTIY

IC50 [2]: < 100 nM
GI50 ([5]; Homo sapiens, OVCAR-3, CCNE1-amplified ovarian cancer, nuclear count): < 500 nM
IC50 ([6]; ADP-Glo, 15 nM WEE1, 60 minutes at 26° C.): 1000 to 11000 nM
PKMYT1 vs. WEE1 selectivity ([6]; fold difference in selectivity for PKMYT1 over WEE1, ">N" = at least in this band but could be higher): X (100-<1000 fold)
SMILES: CCN(CC)C(=O)Cn1cc(C)c(Nc2ncc(C(=O)Nc3c(C)ccc(O)c3C)s2)n1 [BAA-207, 2-[[1-[2-(diethylamino)-2-oxo-ethyl]-4-methyl-pyrazol-3-yl]amino]-N-(3-hydroxy-2,6-dimethyl-phenyl)thiazole-5-carboxamide]
GI50 [1]: 3000 to 10000 nM
GI50 [3]: > 5000 nM
Selectivity ratio KYSE30 Gl50 vs. OVCAR3 Gl50 [4]: Y (>20 fold)
Selectivity ratio KYSE30 GI50 vs. OVCAR3 GI50 ([5]; GI50 ratio KYSE30 vs. OVCAR3, >N = at least in this band): Z (>30 fold)

Reference: US20260297042A1, “BIARYLAMIDE DERIVATIVES AND THEIR USE AS PKMYT1 INHIBITORS” (CANCER RESEARCH TECHNOLOGY LIMITED, priority 2023, published 2026)
